Results published in PubChem BioAssay AID2060900 (Molecular Pharmacology Branch, DTP, NCI, 2025).
pIC50: −log10 of the molar value.

System: 521955-158-R2-J5-PDC complex spheroids, viability
Assay: Anticancer human tumor 521955-158-R2-J5-PDC patient-derived pancreatic carcinoma cell line growth inhibition [RAS]
Conditions: for pIC50: curve of first compound; for viability, T/C: stronger effect = lower value
How it was run: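 Agents were tested in combination matrices in half-log decrements from a top concentration at or near clinical Cmax (10 microM if undetermined). Targets were multi-cell spheroids of tumour lines plus HUVEC and MSC stromal cells.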
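Further: compound exposure lasted seven days before the viability read.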
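Wherever viability, T/C is given: spheroids also contain HUVEC endothelial cells and mesenchymal stem cells as stroma.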

`O=C(c1ccc(F)c(F)c1Nc1ccc(I)cc1F)N1CC(O)([C@@H]2CCCCN2)C1` + CCn1c(-c2cccnc2C(C)OC)c2c3cc(ccc31)N1CCOC(CC(NC(=O)C(C(C)C)N(C)C(=O)C3(F)CCN(C(=O)C#CC(C)(C)N(C)C)CC3)C(=O)N3CCCC(N3)C(=O)OCC(C)(C)C2)C1 gave a pIC50 (second compound 0.000949 µM) of 7.76, a pIC50 (second compound 0.003 µM) of 7.57 and a pIC50 (second compound 0.00949 µM) of 7.38. For the same molecule, the pIC50 (second compound 0.03 µM) was 7.50, the pIC50 (second compound 0.0949 µM) was 7.75 and the pIC50 (second compound 0.3 µM) was 8.17. For the same molecule, the viability, T/C (second compound 0.000949 µM, first compound 0.00316 µM) was 83%, the viability, T/C (second compound 0.000949 µM, first compound 0.01 µM) was 53.3% and the viability, T/C (second compound 0.000949 µM, first compound 0.0316 µM) was 43.4%. The viability, T/C (second compound 0.000949 µM, first compound 0.1 µM) was 36.1%, the viability, T/C (second compound 0.000949 µM, first compound 0.316 µM) was 32.2% and the viability, T/C (second compound 0.000949 µM, first compound 1 µM) was 22%. It also gave a viability, T/C (second compound 0.003 µM, first compound 0.00316 µM) of 77.6%, a viability, T/C (second compound 0.003 µM, first compound 0.01 µM) of 62.5% and a viability, T/C (second compound 0.003 µM, first compound 0.0316 µM) of 45.2%. The viability, T/C (second compound 0.003 µM, first compound 0.1 µM) was 36.1%, the viability, T/C (second compound 0.003 µM, first compound 0.316 µM) was 33% and the viability, T/C (second compound 0.003 µM, first compound 1 µM) was 18.6%. For the same molecule, the viability, T/C (second compound 0.00949 µM, first compound 0.00316 µM) was 92.2%, the viability, T/C (second compound 0.00949 µM, first compound 0.01 µM) was 60.9% and the viability, T/C (second compound 0.00949 µM, first compound 0.0316 µM) was 58.5%. The viability, T/C (second compound 0.00949 µM, first compound 0.1 µM) was 42.2%, the viability, T/C (second compound 0.00949 µM, first compound 0.316 µM) was 28.3% and the viability, T/C (second compound 0.00949 µM, first compound 1 µM) was 24.2%. For the same molecule, the viability, T/C (second compound 0.03 µM, first compound 0.00316 µM) was 80%, the viability, T/C (second compound 0.03 µM, first compound 0.01 µM) was 59.6% and the viability, T/C (second compound 0.03 µM, first compound 0.0316 µM) was 51.6%. For the same molecule, the viability, T/C (second compound 0.03 µM, first compound 0.1 µM) was 39.2%, the viability, T/C (second compound 0.03 µM, first compound 0.316 µM) was 29% and the viability, T/C (second compound 0.03 µM, first compound 1 µM) was 22.2%. It also gave a viability, T/C (second compound 0.0949 µM, first compound 0.00316 µM) of 64.2%, a viability, T/C (second compound 0.0949 µM, first compound 0.01 µM) of 56.8% and a viability, T/C (second compound 0.0949 µM, first compound 0.0316 µM) of 43.2%. It also gave a viability, T/C (second compound 0.0949 µM, first compound 0.1 µM) of 36.4%, a viability, T/C (second compound 0.0949 µM, first compound 0.316 µM) of 32.4% and a viability, T/C (second compound 0.0949 µM, first compound 1 µM) of 23.9%. It also gave a viability, T/C (second compound 0.3 µM, first compound 0.00316 µM) of 54.2%, a viability, T/C (second compound 0.3 µM, first compound 0.01 µM) of 46.5% and a viability, T/C (second compound 0.3 µM, first compound 0.0316 µM) of 42.2%. For the same molecule, the viability, T/C (second compound 0.3 µM, first compound 0.1 µM) was 37%, the viability, T/C (second compound 0.3 µM, first compound 0.316 µM) was 31.4% and the viability, T/C (second compound 0.3 µM, first compound 1 µM) was 17.8%.

With `C=CC(=O)Nc1cc(Nc2nccc(-c3cn(C)c4ccccc34)n2)c(OC)cc1N(C)CCN(C)C` + C=CC(=O)N1CCN(c2nc(OCC3CCCN3C)nc3c(F)c(-c4nc(N)cc(C)c4C(F)(F)F)c(Cl)cc23)C(C)C1 the pIC50 (second compound 0.00316 µM) was 6.01, the pIC50 (second compound 0.01 µM) was 6.05 and the pIC50 (second compound 0.0316 µM) was less than 6.00. The pIC50 (second compound 0.1 µM) was 6.12, the pIC50 (second compound 0.316 µM) was 6.20 and the pIC50 (second compound 1 µM) was 6.12. It also gave a viability, T/C (second compound 0.00316 µM, first compound 0.00316 µM) of 106%, a viability, T/C (second compound 0.00316 µM, first compound 0.01 µM) of 78.6% and a viability, T/C (second compound 0.00316 µM, first compound 0.0316 µM) of 90.5%. The viability, T/C (second compound 0.00316 µM, first compound 0.1 µM) was 81.2%, the viability, T/C (second compound 0.00316 µM, first compound 0.316 µM) was 86.4% and the viability, T/C (second compound 0.00316 µM, first compound 1 µM) was 48.9%. For the same molecule, the viability, T/C (second compound 0.01 µM, first compound 0.00316 µM) was 87.8%, the viability, T/C (second compound 0.01 µM, first compound 0.01 µM) was 63.4% and the viability, T/C (second compound 0.01 µM, first compound 0.0316 µM) was 77.8%. For the same molecule, the viability, T/C (second compound 0.01 µM, first compound 0.1 µM) was 108%, the viability, T/C (second compound 0.01 µM, first compound 0.316 µM) was 74.1% and the viability, T/C (second compound 0.01 µM, first compound 1 µM) was 47.5%. The viability, T/C (second compound 0.0316 µM, first compound 0.00316 µM) was 80.1%, the viability, T/C (second compound 0.0316 µM, first compound 0.01 µM) was 63.5% and the viability, T/C (second compound 0.0316 µM, first compound 0.0316 µM) was 96.5%. The viability, T/C (second compound 0.0316 µM, first compound 0.1 µM) was 107%, the viability, T/C (second compound 0.0316 µM, first compound 0.316 µM) was 68.1% and the viability, T/C (second compound 0.0316 µM, first compound 1 µM) was 50.4%. For the same molecule, the viability, T/C (second compound 0.1 µM, first compound 0.00316 µM) was 68.1%, the viability, T/C (second compound 0.1 µM, first compound 0.01 µM) was 81.4% and the viability, T/C (second compound 0.1 µM, first compound 0.0316 µM) was 74.8%. The viability, T/C (second compound 0.1 µM, first compound 0.1 µM) was 85.3%, the viability, T/C (second compound 0.1 µM, first compound 0.316 µM) was 73.6% and the viability, T/C (second compound 0.1 µM, first compound 1 µM) was 42.2%. For the same molecule, the viability, T/C (second compound 0.316 µM, first compound 0.00316 µM) was 121%, the viability, T/C (second compound 0.316 µM, first compound 0.01 µM) was 82.2% and the viability, T/C (second compound 0.316 µM, first compound 0.0316 µM) was 95.9%. It also gave a viability, T/C (second compound 0.316 µM, first compound 0.1 µM) of 70.1%, a viability, T/C (second compound 0.316 µM, first compound 0.316 µM) of 67.8% and a viability, T/C (second compound 0.316 µM, first compound 1 µM) of 39%. It also gave a viability, T/C (second compound 1 µM, first compound 0.00316 µM) of 106%, a viability, T/C (second compound 1 µM, first compound 0.01 µM) of 72.8% and a viability, T/C (second compound 1 µM, first compound 0.0316 µM) of 78.7%. The viability, T/C (second compound 1 µM, first compound 0.1 µM) was 73.9%, the viability, T/C (second compound 1 µM, first compound 0.316 µM) was 64% and the viability, T/C (second compound 1 µM, first compound 1 µM) was 42.1%.
